Reference: ChEMBL document CHEMBL2216752, “Carnitine palmitoyltransferase (CPT) modulators: a medicinal chemistry perspective on 35 years of research” (J Med Chem, 2011)

Key:
Homo sapiens [1] = assay: Reduction in FBG level in NIDD patient at 12.5 to 50 mg/day, po for 14 days; format: functional; parameters: scale not given: the % may be the effect or the level left
Homo sapiens [2] = assay: Increase in plasma FFAs level in NIDD patient at 50 to 200 mg/day, po bid for 3 days before meals; format: functional
Homo sapiens [3] = species on record: Homo sapiens; assay: Increase in stroke volume in CHF patient at 80 mg/day for 3 months; format: functional
Homo sapiens [4] = assay: Increase in metabolic clearance of glucose in NIDD patient at 50 mg, po administered as single dose; format: functional
Homo sapiens [5] = assay: Reduction in plasma TG level in NIDD patient at 12.5 to 50 mg/day, po for 14 days; format: functional; parameters: scale not given: the % may be the effect or the level left
Homo sapiens [6] = assay: Increase in glucose MCR in NIDD patient at 50 mg, po administered as single dose; format: functional
Homo sapiens [7] = assay: Reduction in plasma TG level in NIDD patient at 50 to 200 mg/day, po bid for 3 days before meals; format: functional; parameters: scale not given: the % may be the effect or the level left
Mus musculus [8] = assay: Reduction in FBG level in db/db mouse at 10 mg/kg, po; format: functional; parameters: scale not given: the % may be the effect or the level left
Mus musculus [9] = assay: Reduction in FBG level in db/db mouse at 50 mg/kg, po; format: functional; parameters: scale not given: the % may be the effect or the level left
Homo sapiens [10] = assay: Reduction in whole body fat oxidation in human at 600 mg, po for 5 days; format: functional; parameters: scale not given: the % may be the effect or the level left
Homo sapiens [11] = assay: Reduction in beta-hydroxy butyrate level in NIDD patient at 12.5 to 50 mg/day, po for 14 days; format: functional; parameters: scale not given: the % may be the effect or the level left
Homo sapiens [12] = assay: Reduction in basal hepatic glucose production in NIDD patient at 50 to 200 mg/day, po bid for 3 days before meals; format: functional; parameters: scale not given: the % may be the effect or the level left
Homo sapiens [13] = assay: Reduction in fat oxidation in NIDD patient at 100 mg/day, po for 3 days administered as single dose; format: functional; parameters: scale not given: the % may be the effect or the level left
Mus musculus [14] = assay: Reduction in glucose excretion in db/db mouse at 10 to 20 mg/kg/day, po dosed life long through food-admix; format: functional; parameters: scale not given: the % may be the effect or the level left
Homo sapiens [15] = species on record: Homo sapiens; assay: Increase in left ventricular ejection fraction in CHF patient at 80 mg/day for 3 months; format: functional, Heart left ventricle
Homo sapiens [16] = assay: Reduction in BHB level in NIDD patient at 50 to 200 mg/day, po bid for 3 days before meals; format: functional; parameters: scale not given: the % may be the effect or the level left
Rattus norvegicus [17] = assay: Inhibition of CPT1 activity in blood KB level in STZ-treated fasted rat at 0.2 to 18 mg/kg, po; format: functional; settings: dose mg/kg 0.2-18
Mus musculus [18] = assay: Reduction in urine volume in db/db mouse at 10 to 20 mg/kg/day, po dosed life long through food-admix; format: functional; parameters: scale not given: the % may be the effect or the level left
Homo sapiens [19] = species on record: Homo sapiens; assay: Increase in maximum cardiac output in CHF patient at 80 mg/day for 3 months measured during exercise; format: functional
Rattus norvegicus [20] = assay: Reduction in hepatic glucose production in STZ-treated rat at 12.5 to 25 mg/kg, po; format: functional; parameters: scale not given: the % may be the effect or the level left; settings: dose mg/kg 12.5-25
Rattus norvegicus [21] = assay: Reduction in plasma TG in high fat diet fed STZ-treated rat at 12.5 mg/kg/day, po for up to 4 weeks measured 3 days to 1 week post dose; format: functional; parameters: scale not given: the % may be the effect or the level left
Homo sapiens [22] = assay: Reduction in postprandial glucose in NIDD patient at 125 mg/day, po for 4 days (reference value: 10.5 mM); format: functional
Homo sapiens [23] = assay: Reduction in plasma cholesterol level in NIDD patient at 50 to 200 mg/day, po bid for 3 days before meals; format: functional; parameters: scale not given: the % may be the effect or the level left
Homo sapiens [24] = assay: Reduction in glucose appearance rate in NIDD patient at 100 mg/day, po for 3 days administered as single dose; format: functional; parameters: scale not given: the % may be the effect or the level left
Mus musculus [25] = assay: Reduction in fasting glucose in db/db mouse at 10 to 20 mg/kg/day, po dosed life long through food-admix; format: functional; parameters: scale not given: the % may be the effect or the level left
Rattus norvegicus [26] = assay: Reduction in blood KB level in STZ-treated fasted rat at 0.2 to 18 mg/kg, po; format: functional; parameters: scale not given: the % may be the effect or the level left; settings: dose mg/kg 0.2-18
Homo sapiens [27] = assay: Reduction in plasma LD/HDL ratio in NIDD patient at 12.5 to 50 mg/day, po for 14 days; format: functional; parameters: scale not given: the % may be the effect or the level left
Homo sapiens [28] = assay: Reduction in fasting plasma glucose in NIDD patient at 50 to 200 mg/day, po bid for 3 days before meals; format: functional; parameters: scale not given: the % may be the effect or the level left
Rattus norvegicus [29] = assay: Reduction in blood glucose in STZ-treated fasted rat at 0.2 to 18 mg/kg, po measured 4 hrs post dose; format: functional; parameters: scale not given: the % may be the effect or the level left; settings: dose mg/kg 0.2-18
Hepatocyte = assay: Inhibition of fatty acid synthesis in rat hepatocytes; format: functional, cell-based
Homo sapiens [30] = assay: Increase in carbohydrate oxidation in NIDD patient at 100 mg/day, po for 3 days administered as single dose; format: functional
[31] = Cytotoxicity against human OCI-AML3 cells assessed as reduction in cell viability; format: functional, cell-based; settings: OCI-AML-3
Rattus norvegicus [32] = assay: Reduction in fasting plasma glucose level in STZ-treated rat at 12.5 to 25 mg/kg, po; format: functional; parameters: scale not given: the % may be the effect or the level left; settings: dose mg/kg 12.5-25
MOLM-13 = assay: Cytotoxicity against human MOLM13 cells assessed as reduction in cell viability; format: functional, cell-based
Rattus norvegicus [33] = assay: Reduction in fasting serum FFAs level in high fat diet fed STZ-treated rat at 12.5 mg/kg/day, po for up to 4 weeks measured 3 days to 1 week post dose; format: functional; parameters: scale not given: the % may be the effect or the level left
Mus musculus [34] = assay: Reduction in daily water intake in db/db mouse at 10 to 20 mg/kg/day, po dosed life long through food-admix; format: functional; parameters: scale not given: the % may be the effect or the level left

Which Activity (Homo sapiens [1]) does the source give for `CCOC(=O)C1(CCCCCCOc2ccc(Cl)cc2)CO1` (racemic) [rac-ETOMOXIR] here?
Its Activity is “<=45%”.

What about the Activity (Homo sapiens [2]) of the same compound?
Its Activity is 52%.

And the Activity (Homo sapiens [3])?
Its Activity is 30%.

And the Activity (Homo sapiens [4])?
The Activity was 30%.

What about the Activity (Homo sapiens [5]) of the same compound?
The Activity was 30%.

And the Activity (Homo sapiens [6])?
The Activity was 33%.

What about the Activity (Homo sapiens [7]) of the same compound?
Its Activity is 54%.

What about the Activity (Mus musculus [8]) of the same compound?
Its Activity is 43%.

What about the Activity (Mus musculus [9]) of the same compound?
Its Activity is 55%.

What about the Activity (Homo sapiens [10]) of the same compound?
Its Activity is 13.7%.

What about the Activity (Homo sapiens [11]) of the same compound?
The Activity was 50%.

And the Activity (Homo sapiens [12])?
Its Activity is 18%.

What about the Activity (Homo sapiens [13]) of the same compound?
Its Activity is 18%.

What about the Activity (Mus musculus [14]) of the same compound?
The Activity was 70%.

What about the Activity (Homo sapiens [15]) of the same compound?
Its Activity is 25%.

What about the Activity (Homo sapiens [16]) of the same compound?
The Activity was 44%.

What about the “inhibition (INH)” value (Rattus norvegicus [17]) of the same compound?
Its value is “<=99%”.

What about the Activity (Mus musculus [18]) of the same compound?
The Activity was 70%.

And the Activity (Homo sapiens [19])?
Its Activity is 38%.

And the Activity (Rattus norvegicus [20])?
Its Activity is 32%.

And the Activity (Rattus norvegicus [21])?
Its Activity is 67%.

What about the Activity (Homo sapiens [22]) of the same compound?
The Activity was 8.3 mM.

And the Activity (Homo sapiens [23])?
The Activity was 24%.

And the Activity (Homo sapiens [24])?
The Activity was 8%.

What about the Activity (Mus musculus [25]) of the same compound?
Its Activity is 50%.

And the Activity (Rattus norvegicus [26])?
Its Activity is 87%.

And the Activity (Homo sapiens [27])?
Its Activity is 35%.

And the Activity (Homo sapiens [28])?
Its Activity is 18%.

And the Activity (Rattus norvegicus [29])?
Its Activity is 40%.

And the IC50 (Hepatocyte)?
The IC50 was 2000 nM.

What about the Activity (Homo sapiens [30]) of the same compound?
The Activity was 58%.

And the IC50 [31]?
The IC50 was 51 µM.

And the Activity (Rattus norvegicus [32])?
The Activity was 32%.

And the IC50 (MOLM-13)?
The IC50 was 51 µM.

And the Activity (Rattus norvegicus [33])?
The Activity was 56%.

And the Activity (Mus musculus [34])?
The Activity was 50%.
